Experimental data reported in ChEMBL document CHEMBL1201861, “Genomics of Drug Sensitity in Cancer screening data, Wellcome Trust Sanger Institute”.

How the values were obtained:
Experiment in all cases: cells
Format in all cases: functional, cell-based, Homo sapiens
BHY = conditions: Homo sapiens, BHY;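 note: cell growth inhibition read out by a viability assay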
Description: SANGER: Inhibition of human BHY cell growth in a cell viability assay.

MDA-MB-361 = conditions: Homo sapiens, MDA-MB-361
SiHa = conditions: Homo sapiens, SiHa;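 note: Viability-based readout of growth inhibition in SiHa cells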
Description: SANGER: Inhibition of human SiHa cell growth in a cell viability assay.

MKN-28 = conditions: Homo sapiens, MKN-28;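 note: cell viability assay read-out, IC50 reflects suppression of growth of human MKN-28 cells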
Description: SANGER: Inhibition of human MKN28 cell growth in a cell viability assay.

CAL-120 = conditions: Homo sapiens, CAL-120;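 note: cell growth inhibition, read out as cell viability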
Description: SANGER: Inhibition of human CAL-120 cell growth in a cell viability assay.

SW837 = conditions: Homo sapiens, SW837;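 note: growth inhibition of SW837 cells, determined with a cell viability assay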
Description: SANGER: Inhibition of human SW837 cell growth in a cell viability assay.

KU-19-19 = conditions: Homo sapiens, KU-19-19
Description: SANGER: Inhibition of human KU-19-19 cell growth in a cell viability assay.

MeWo = conditions: Homo sapiens, MeWo;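 note: growth inhibition of MeWo cells, determined by a cell viability readout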
Description: SANGER: Inhibition of human Mewo cell growth in a cell viability assay.

MOLT-13 = conditions: Homo sapiens, MOLT-13;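 note: IC50 for suppression of MOLT-13 cell growth, read out with a cell viability assay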
Description: SANGER: Inhibition of human MOLT-13 cell growth in a cell viability assay.

LoVo = conditions: Homo sapiens, LoVo;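 note: growth inhibition of human LoVo cells, read out with a cell viability assay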
Description: SANGER: Inhibition of human LoVo cell growth in a cell viability assay.

GAMG = conditions: Homo sapiens, GAMG;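 note: cell growth inhibition measured by a viability assay in the GAMG human cell line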
Description: SANGER: Inhibition of human GAMG cell growth in a cell viability assay.

NCI-H2405 = conditions: Homo sapiens, NCI-H2405;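 note: growth inhibition of the human cell line, read out with a cell viability assay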
Description: SANGER: Inhibition of human NCI-H2405 cell growth in a cell viability assay.

IGROV-1 = conditions: Homo sapiens, IGROV-1;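 note: reduction of IGROV-1 cell growth, read out with a viability assay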
Description: SANGER: Inhibition of human IGROV-1 cell growth in a cell viability assay.

CAPAN-1 = conditions: Homo sapiens, CAPAN-1;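 note: growth suppression of CAPAN-1 cells, read out by a cell viability assay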
Description: SANGER: Inhibition of human CAPAN-1 cell growth in a cell viability assay.

CAL-54 = conditions: Homo sapiens, CAL-54;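 note: growth inhibition of CAL-54 cells, read out by a viability measurement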
Description: SANGER: Inhibition of human CAL-54 cell growth in a cell viability assay.

FaDu = conditions: Homo sapiens, FaDu;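 note: cell viability readout of growth inhibition in FaDu cells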
Description: SANGER: Inhibition of human FADU cell growth in a cell viability assay.

MDA-MB-157 = conditions: Homo sapiens, MDA-MB-157
Description: SANGER: Inhibition of human MDA-MB-157 cell growth in a cell viability assay.

EFO-21 = conditions: Homo sapiens, EFO-21;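 note: growth inhibition of EFO-21 cells measured with a viability assay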
Description: SANGER: Inhibition of human EFO-21 cell growth in a cell viability assay.

TYK-nu = conditions: Homo sapiens, TYK-nu;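 note: growth inhibition of human TYK-nu cells, read out by a cell viability assay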
Description: SANGER: Inhibition of human TYK-nu cell growth in a cell viability assay.

T98G = conditions: Homo sapiens, T98G;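 note: growth inhibition of T98G cells, read out by a cell viability assay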
Description: SANGER: Inhibition of human T98G cell growth in a cell viability assay.

BT-549 = conditions: Homo sapiens, BT-549
Description: SANGER: Inhibition of human BT-549 cell growth in a cell viability assay.

AU565 = conditions: Homo sapiens, AU565;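 note: cell viability assay measuring growth inhibition of human AU565 cells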
Description: SANGER: Inhibition of human AU565 cell growth in a cell viability assay.

PC-14 = conditions: Homo sapiens, PC-14;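 note: cell viability assay measuring inhibition of PC-14 cell growth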
Description: SANGER: Inhibition of human PC-14 cell growth in a cell viability assay.

DBTRG-05MG = conditions: Homo sapiens, DBTRG-05MG;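 note: cell viability assay measuring growth inhibition of human DBTRG-05MG cells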
Description: SANGER: Inhibition of human DBTRG-05MG cell growth in a cell viability assay.

HuO9 = conditions: Homo sapiens, HuO9;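 note: growth inhibition of HuO9 cells, read out with a cell viability assay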
Description: SANGER: Inhibition of human HuO9 cell growth in a cell viability assay.

CHP-212 = conditions: Homo sapiens, CHP-212
Description: SANGER: Inhibition of human CHP-212 cell growth in a cell viability assay.

NUGC-3 = conditions: Homo sapiens, NUGC-3;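 note: growth inhibition of human NUGC-3 cells, read out with a cell viability assay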
Description: SANGER: Inhibition of human NUGC-3 cell growth in a cell viability assay.

KYSE-520 cell line = conditions: Homo sapiens, KYSE-520;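 note: growth inhibition of human KYSE-520 cells, read out with a viability assay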
Description: SANGER: Inhibition of human KYSE-520 cell growth in a cell viability assay.

MEL-HO = conditions: Homo sapiens, MEL-HO
Description: SANGER: Inhibition of human MEL-HO cell growth in a cell viability assay.

SBC-5 = conditions: Homo sapiens, SBC-5;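 note: cell viability assay read-out, IC50 is the concentration that inhibits growth of the cells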
Description: SANGER: Inhibition of human SBC-5 cell growth in a cell viability assay.

A-427 = conditions: Homo sapiens, A-427;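 note: growth inhibition of human A-427 cells, read out by a cell viability assay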
Description: SANGER: Inhibition of human A427 cell growth in a cell viability assay.

CWR22R = conditions: Homo sapiens, 22Rv1;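 note: growth inhibition of 22Rv1 cells, read out with a cell viability assay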
Description: SANGER: Inhibition of human 22RV1 cell growth in a cell viability assay.

SAOS-2 = conditions: Homo sapiens, SAOS-2;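 note: growth inhibition of human Saos-2 cells determined by a cell viability assay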
Description: SANGER: Inhibition of human Saos-2 cell growth in a cell viability assay.

HT-3 = conditions: Homo sapiens, HT-3;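 note: growth inhibition measured with a cell viability readout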
Description: SANGER: Inhibition of human HT-3 cell growth in a cell viability assay.

SF-295 = conditions: Homo sapiens, SF-295;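 note: growth inhibition of SF-295 cells, read out with a cell viability assay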
Description: SANGER: Inhibition of human SF295 cell growth in a cell viability assay.

G-361 = conditions: Homo sapiens, G-361

| SMILES | IC50 (BHY) | IC50 (MDA-MB-361) | IC50 (SiHa) | IC50 (CAL-120) | IC50 (KU-19-19) | IC50 (MeWo) | IC50 (LoVo) | IC50 (GAMG) | IC50 (NCI-H2405) | IC50 (IGROV-1) | IC50 (CAPAN-1) | IC50 (CAL-54) | IC50 (FaDu) | IC50 (MDA-MB-157) | IC50 (EFO-21) | IC50 (TYK-nu) | IC50 (T98G) | IC50 (BT-549) | IC50 (AU565) | IC50 (PC-14) | further results |
| --- | --- | --- | --- | --- | --- | --- | --- | --- | --- | --- | --- | --- | --- | --- | --- | --- | --- | --- | --- | --- | --- |
| CC1(C)CNc2cc(NC(=O)c3cccnc3NCc3ccncc3)ccc21 [MOTESANIB] | > 2 µM | > 2 µM | > 2 µM | > 2 µM | > 2 µM | > 2 µM | > 2 µM | > 2 µM | > 2 µM | > 2 µM | > 2 µM | > 2 µM | > 2 µM | > 2 µM | > 2 µM | > 2 µM | > 2 µM | > 2 µM | > 2 µM | > 2 µM | IC50 (MKN-28): > 2 µM; IC50 (SW837): > 2 µM; IC50 (MOLT-13): > 2 µM; IC50 (DBTRG-05MG): > 2 µM; IC50 (HuO9): > 2 µM; IC50 (CHP-212): > 2 µM; IC50 (NUGC-3): > 2 µM; IC50 (KYSE-520 cell line): > 2 µM; IC50 (MEL-HO): > 2 µM; IC50 (SBC-5): > 2 µM; IC50 (A-427): > 2 µM; IC50 (CWR22R): > 2 µM; IC50 (SAOS-2): > 2 µM; IC50 (HT-3): > 2 µM; IC50 (SF-295): > 2 µM |
| Cn1cnc2c(F)c(Nc3ccc(Br)cc3Cl)c(C(=O)NOCCO)cc21 [SELUMETINIB] | 1.81 µM | > 4 µM | > 4 µM | > 4 µM | 3.42 µM | 0.521 µM | 1.06 µM | > 4 µM | > 4 µM | > 4 µM | > 4 µM | 1.49 µM | > 4 µM | > 4 µM | 3.19 µM | > 4 µM | > 4 µM | > 4 µM | > 4 µM | > 4 µM | IC50 (MOLT-13): > 4 µM; IC50 (DBTRG-05MG): > 4 µM; IC50 (HuO9): > 4 µM; IC50 (CHP-212): < 0.0156 µM; IC50 (NUGC-3): 1.2 µM; IC50 (KYSE-520 cell line): > 4 µM; IC50 (MEL-HO): 0.139 µM; IC50 (SBC-5): > 4 µM; IC50 (A-427): > 4 µM; IC50 (CWR22R): > 4 µM; IC50 (SAOS-2): > 4 µM; IC50 (HT-3): > 4 µM; IC50 (SF-295): > 4 µM |
| CS(=O)(=O)c1ccc(C(=O)Nc2ccc(Cl)c(-c3ccccn3)c2)c(Cl)c1 [VISMODEGIB] | > 10 µM | > 10 µM | > 10 µM | > 10 µM | > 10 µM | > 10 µM | > 10 µM | > 10 µM | > 10 µM | 0.0725 µM | > 10 µM | > 10 µM | > 10 µM | > 10 µM | > 10 µM | > 10 µM | > 10 µM | > 10 µM | > 10 µM | > 10 µM | IC50 (MKN-28): > 10 µM; IC50 (SW837): > 10 µM; IC50 (G-361): > 10 µM; IC50 (DBTRG-05MG): > 10 µM; IC50 (HuO9): > 10 µM; IC50 (CHP-212): > 10 µM; IC50 (NUGC-3): > 10 µM; IC50 (KYSE-520 cell line): > 10 µM; IC50 (MEL-HO): > 10 µM; IC50 (SBC-5): > 10 µM; IC50 (A-427): > 10 µM; IC50 (CWR22R): > 10 µM; IC50 (SAOS-2): > 10 µM; IC50 (HT-3): > 10 µM; IC50 (SF-295): > 10 µM |
